One data set addresses T1, human Top IB (hTopIB) (Homo sapiens, UniProt P11387).
T1 construct: made in house
T1 sequence (P11387 1-765): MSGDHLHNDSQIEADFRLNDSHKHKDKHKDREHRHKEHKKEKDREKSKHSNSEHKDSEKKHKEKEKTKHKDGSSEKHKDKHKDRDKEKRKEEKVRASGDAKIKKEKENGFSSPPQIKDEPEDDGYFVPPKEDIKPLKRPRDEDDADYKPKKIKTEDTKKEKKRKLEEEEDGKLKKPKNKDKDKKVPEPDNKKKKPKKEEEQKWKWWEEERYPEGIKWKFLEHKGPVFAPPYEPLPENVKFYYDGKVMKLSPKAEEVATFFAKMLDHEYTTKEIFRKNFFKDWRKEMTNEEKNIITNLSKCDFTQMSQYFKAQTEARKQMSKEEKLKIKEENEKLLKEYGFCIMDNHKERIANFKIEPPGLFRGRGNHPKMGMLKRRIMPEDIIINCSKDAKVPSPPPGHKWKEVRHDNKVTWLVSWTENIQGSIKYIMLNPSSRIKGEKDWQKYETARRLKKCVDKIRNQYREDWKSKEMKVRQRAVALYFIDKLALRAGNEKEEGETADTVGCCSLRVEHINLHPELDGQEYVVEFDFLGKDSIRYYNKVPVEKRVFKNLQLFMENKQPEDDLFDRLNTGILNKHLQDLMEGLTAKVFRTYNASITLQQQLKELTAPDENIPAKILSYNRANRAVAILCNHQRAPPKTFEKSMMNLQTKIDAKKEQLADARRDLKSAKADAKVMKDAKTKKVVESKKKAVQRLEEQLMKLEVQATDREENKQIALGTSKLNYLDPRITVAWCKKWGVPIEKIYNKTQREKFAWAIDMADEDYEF
Description: Relaxation of supercoiled pSK DNA by recombinant hTopIB. Format: biochemical. Conditions: Table 1. Here is the method:
Expression and purification of LTopIB and hTopIB were carried out according to a previously standardized protocol ([Villa et al., 2003]). The effect of indenoisoquinolines (compounds 1 to 20) on recombinant LTopIB and hTopIB was determined by measuring the relaxation of negatively supercoiled pBluescript-SK DNA plasmid (pSK). Briefly, in a total volume of 20 μL, 100 U of recombinant TopIB were incubated with 0.5 μg of pSK DNA in 10 mM Tris-HCl buffer (pH 7.5), 5 mM MgCl2, 5 mM dithiothreitol (DTT), 0.1 mM EDTA, […] bovine serum albumin, and 150 mM KCl. Different concentrations of indenoisoquinolines were also added. Following a 4-min incubation period at 25 °C, reactions were stopped with 1% (w/v) SDS, and incubated for one extra hour at 37 °C in the presence of 1 mg/mL proteinase K. Subsequently, samples were extracted with 1 vol phenol-chloroform mixture and were loaded on a 1% agarose gel containing 0.1 μg/mL ethidium bromide. The gel was run for 16 h at 4 V/cm, and the images were acquired using a G-Box system (Syngene, United Kingdom).

For data set [1], the system named is L. infantum promastigotes. The data set can be described thus: Cell cycle analysis by flow cytometry (propidium iodide). In kind it is cell-based, Leishmania infantum. The settings on record: 1 μM single dose, 0, 8, 24, 48 h. Here is the method: One million promastigotes untreated or treated with 1 μM of different indenoisoquinolines were harvested by centrifugation after 0, 8, 24 and 48 h exposure. Promastigotes were washed twice with PBS and fixed by 1 h incubation with 70% methanol at 4 °C. After incubation, cells were centrifuged, washed again with PBS and resuspended in 0.5 mL of citrate buffer (45 mM MgCl2, 20 mM MOPS, 30 mM sodium citrate, 0.1% Triton X-100, pH = 7). Finally, samples with RNAase (50 μg/mL) and propidium iodide ([…]) were incubated at 37 °C during 30 min and analyzed at 589 nm by flow cytometry (Cyan ADP Dako).
In general terms: In flow cytometry, cells or beads pass a laser one at a time.

Data set [2] in a line: Cytotoxicity on uninfected mouse splenocytes (Alamar Blue). Format: cell-based. Conditions: BALB/c, freshly isolated uninfected mouse splenocytes, non-infected mouse splenocytes, read-out: CC50 (μM) Murine Splenocytes. How it is done:
Finally, the cytotoxicity of the compounds was assessed on freshly-isolated mouse splenocytes, which were obtained from uninfected BALB/c mice according to the protocol previously described. Viability of uninfected splenocytes was used to determine the cytotoxic concentration 50 (CC50) by means of the Alamar Blue staining method, according to manufacturer's recommendations (Invitrogen). Selectivity index (SI) for each compound was calculated as the ratio between the CC50 value obtained for splenic cells and the EC50 value for amastigotes.
Background: The colour change of resazurin is a common sign of viable cells or microbes.

`NCCCn1c2c(c3ccccc3c1=O)C(=O)c1ccccc1-2` [Compound 2]: the hTopIB inhibition result at human Top IB (hTopIB) is reported as “++ (inhibition at 10 μM)”. In addition, the “effect on cell cycle of promastigotes” value in data set [1] is listed as “did not arrest the cell cycle”. Further, the CC50 in data set [2] was found to be 0.59 ± 0.28 µM.

For orientation: CC50 means the concentration giving 50% cytotoxicity.

For the origin of these results see article PMC6796659, “Topoisomerase IB poisons induce histone H2A phosphorylation as a response to DNA damage in Leishmania infantum” (International Journal for Parasitology: Drugs and Drug …, 2019).
